Experimental findings from publication PMC6273138, “Inhibitory Effects of Aschantin on Cytochrome P450 and Uridine 5′-diphospho-glucuronosyltransferase Enzyme Activities in Human Liver Microsomes” (Molecules, 2016) are described below.

Read-outs that look alike come from different tables or passages of the source.

Data set [1] concerns the target T1, CYP2C8 (Homo sapiens, UniProt P10632).
T1 sequence (P10632 1-490): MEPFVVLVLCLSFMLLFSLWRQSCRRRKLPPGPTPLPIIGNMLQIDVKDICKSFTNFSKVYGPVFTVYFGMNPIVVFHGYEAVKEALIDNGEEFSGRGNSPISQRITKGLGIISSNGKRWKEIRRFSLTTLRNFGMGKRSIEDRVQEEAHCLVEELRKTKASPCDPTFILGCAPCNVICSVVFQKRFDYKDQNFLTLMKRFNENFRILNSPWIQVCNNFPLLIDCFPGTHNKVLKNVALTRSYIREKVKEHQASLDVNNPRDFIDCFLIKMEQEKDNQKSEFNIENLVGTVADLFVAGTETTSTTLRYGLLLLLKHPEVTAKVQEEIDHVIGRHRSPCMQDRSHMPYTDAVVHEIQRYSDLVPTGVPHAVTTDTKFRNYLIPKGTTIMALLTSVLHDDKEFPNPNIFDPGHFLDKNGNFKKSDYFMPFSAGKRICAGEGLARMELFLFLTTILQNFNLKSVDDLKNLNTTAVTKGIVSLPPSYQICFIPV
Nature of the data set: Mechanism-based (time- and concentration-dependent) inactivation of CYP2C8 in human liver microsomes. The data set is classed as in vitro ADME. The following applies: CYP2C8-mediated amodiaquine N-de-ethylation. The method, then: (§1) The microsomes (1 mg/mL) were pre-incubated with various concentrations of aschantin in 50 mM potassium phosphate buffer (pH 7.4) in the presence of NADPH. Aliquots (10 µL) of the incubated mixtures were withdrawn at 5, 10, 15, and 20 min after incubation commenced and added to other tubes containing the CYP substrates (2 µM amodiaquine for CYP2C8, 10 µM diclofenac for CYP2C9, 100 µM [S]-mephenytoin for CYP2C19, or 2 µM midazolam for CYP3A4), 1 mM NADPH, 50 mM potassium phosphate buffer (pH 7.4), and 10 mM MgCl2, in 90 µL reaction mixtures. […] Aliquots (5 µL) of the diluted supernatants were analyzed by LC-MS/MS, as described above.
On the technique in general: Liver microsomes are a subcellular fraction often used to study metabolism.

Data set [2] concerns the target T2, CYP2C9 (Homo sapiens, UniProt P11712). Nature of the data set: Mechanism-based (time- and concentration-dependent) inactivation of CYP2C9 in human liver microsomes. The following applies: CYP2C9-catalyzed diclofenac 4′-hydroxylation. It is filed as in vitro ADME. The method, then: as §1
The target in the next data set is T3, CYP2A6 (Homo sapiens, UniProt P11509).
T3 sequence (P11509 1-494): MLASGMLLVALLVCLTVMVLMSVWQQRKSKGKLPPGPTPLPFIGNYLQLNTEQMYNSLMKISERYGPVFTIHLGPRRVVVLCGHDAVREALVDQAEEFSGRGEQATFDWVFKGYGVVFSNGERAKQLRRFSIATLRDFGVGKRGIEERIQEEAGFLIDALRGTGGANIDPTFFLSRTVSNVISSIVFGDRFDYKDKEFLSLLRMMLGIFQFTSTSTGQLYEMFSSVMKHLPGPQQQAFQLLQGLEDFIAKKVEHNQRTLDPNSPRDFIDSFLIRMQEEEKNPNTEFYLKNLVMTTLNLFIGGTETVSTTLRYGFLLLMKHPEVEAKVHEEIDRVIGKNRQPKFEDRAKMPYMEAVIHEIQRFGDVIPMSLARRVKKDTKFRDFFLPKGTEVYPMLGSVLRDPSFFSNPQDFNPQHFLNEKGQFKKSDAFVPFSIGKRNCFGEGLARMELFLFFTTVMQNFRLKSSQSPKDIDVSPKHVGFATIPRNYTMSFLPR
Kind of data set: CYP2A6-catalyzed coumarin 7-hydroxylase inhibition in pooled human liver microsomes.

In the next data set the target is T4, CYP1A2 (Homo sapiens, UniProt P05177).
T4 sequence (P05177 1-516): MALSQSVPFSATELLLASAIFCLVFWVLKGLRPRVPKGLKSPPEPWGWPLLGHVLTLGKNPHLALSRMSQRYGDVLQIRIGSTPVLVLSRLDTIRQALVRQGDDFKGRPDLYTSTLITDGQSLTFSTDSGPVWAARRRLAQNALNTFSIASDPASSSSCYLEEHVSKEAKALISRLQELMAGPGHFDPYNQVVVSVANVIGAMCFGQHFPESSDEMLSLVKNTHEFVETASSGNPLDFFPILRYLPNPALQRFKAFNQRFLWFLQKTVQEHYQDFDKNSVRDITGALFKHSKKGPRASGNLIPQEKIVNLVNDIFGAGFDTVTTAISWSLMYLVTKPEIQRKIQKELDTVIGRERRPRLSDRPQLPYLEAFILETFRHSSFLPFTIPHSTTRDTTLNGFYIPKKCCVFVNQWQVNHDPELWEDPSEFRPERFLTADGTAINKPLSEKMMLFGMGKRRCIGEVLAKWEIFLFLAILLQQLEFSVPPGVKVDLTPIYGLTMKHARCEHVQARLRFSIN
Kind of data set: CYP1A2-catalyzed phenacetin O-de-ethylase inhibition in pooled human liver microsomes.

The target in data set [3] is T1, CYP2C8. Kind of data set: CYP2C8-catalyzed amodiaquine N-de-ethylase inhibition in pooled human liver microsomes. Particulars: for IC50: CYP2C8 amodiaquine N-de-ethylase, 2.0 µM amodiaquine.
Experimental: (§2) The degrees of inhibition (the IC50 values) of aschantin toward CYP1A2, CYP2A6, CYP2C8, CYP2C9, CYP2C19, CYP2D6, and CYP3A4 were evaluated using pooled human liver microsomes employing a cocktail of CYP substrates and liquid chromatography-tandem mass spectrometry (LC-MS/MS). […] After 3 min pre-incubation at 37 °C, the reactions were initiated by addition of NADPH and incubation proceeded for 15 min at 37 °C in a shaking water bath. The reaction was stopped by placing the tubes on ice and adding 100 µL amounts of ice-cold methanol containing internal standards (^13C2,^15N-acetaminophen for acetaminophen and N-desethylamodiaquine; d9-1′-hydroxybufuralol for 4′-hydroxydiclofenac; and 7-hydroxycoumarin, 4′-hydroxy-mephenytoin, 1′-hydroxybufuralol, and 1′-hydroxymidazolam). Then the incubation mixtures were centrifuged at 13,000× g for 4 min at 4 °C. All assays were performed in triplicate and the average values were used in calculations.
(§3) To this end, we employed a tandem mass spectrometer (TSQ Quantum Access, Thermo Scientific, San Jose, CA, USA) coupled to a Nanospace SI-2 LC system (Shiseido, Tokyo, Japan). The column and autosampler temperatures were 50 °C and 6 °C, respectively. The mass spectrometer was equipped with an electrospray ionization (ESI) source and was operated in positive ion mode. The ESI source settings for metabolite ionization were as follows: capillary voltage, 4200 V; vaporizer temperature, 350 °C; capillary temperature 330 °C; sheath gas pressure, 35 psi; and auxiliary gas pressure, 15 psi. […] Analytical data were processed using Xcalibur® software (Thermo Scientific).
(§4) The apparent kinetic inhibitory potentials (the Ki values) were estimated from the fitted curves using Enzyme Kinetics version 1.1 (Systat Software Inc.).
Data set [4] deals with T2, CYP2C9. Nature of the data set: CYP2C9-catalyzed diclofenac 4′-hydroxylase inhibition in pooled human liver microsomes. Particulars: for IC50: CYP2C9 diclofenac 4′-hydroxylase, 10 µM diclofenac.
Experimental: as §2, §3, §4
Another data set has as its target CYP2C19 (Homo sapiens, UniProt P33261). Kind of data set: CYP2C19-catalyzed [S]-mephenytoin 4′-hydroxylase inhibition in pooled human liver microsomes. Particulars: for IC50: CYP2C19 (S)-mephenytoin 4′-hydroxylase, 100 µM [S]-mephenytoin.
Setting [5] is: aschantin at 100 µM, human liver microsomes.
[6] abbreviates: IC50 No Pre-incubation, pooled human liver microsomes, no pre-incubation.
Setting [7] is: IC50 With Pre-incubation, 30 min pre-incubation with microsomes and NADPH.

T2 sequence (P11712 whole entry): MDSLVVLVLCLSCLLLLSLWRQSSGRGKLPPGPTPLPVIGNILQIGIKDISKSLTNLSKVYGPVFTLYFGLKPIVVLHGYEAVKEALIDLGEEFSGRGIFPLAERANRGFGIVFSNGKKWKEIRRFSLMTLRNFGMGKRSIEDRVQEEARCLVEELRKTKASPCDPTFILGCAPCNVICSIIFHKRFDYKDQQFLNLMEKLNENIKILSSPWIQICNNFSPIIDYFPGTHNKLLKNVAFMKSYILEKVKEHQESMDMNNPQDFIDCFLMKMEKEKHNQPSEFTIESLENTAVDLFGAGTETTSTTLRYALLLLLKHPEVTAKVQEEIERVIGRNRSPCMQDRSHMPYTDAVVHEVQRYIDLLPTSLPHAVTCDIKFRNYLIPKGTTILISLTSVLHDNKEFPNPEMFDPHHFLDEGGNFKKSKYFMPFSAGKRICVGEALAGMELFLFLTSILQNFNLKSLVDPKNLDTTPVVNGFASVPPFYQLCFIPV
CYP2C19, sequence (P33261 whole entry): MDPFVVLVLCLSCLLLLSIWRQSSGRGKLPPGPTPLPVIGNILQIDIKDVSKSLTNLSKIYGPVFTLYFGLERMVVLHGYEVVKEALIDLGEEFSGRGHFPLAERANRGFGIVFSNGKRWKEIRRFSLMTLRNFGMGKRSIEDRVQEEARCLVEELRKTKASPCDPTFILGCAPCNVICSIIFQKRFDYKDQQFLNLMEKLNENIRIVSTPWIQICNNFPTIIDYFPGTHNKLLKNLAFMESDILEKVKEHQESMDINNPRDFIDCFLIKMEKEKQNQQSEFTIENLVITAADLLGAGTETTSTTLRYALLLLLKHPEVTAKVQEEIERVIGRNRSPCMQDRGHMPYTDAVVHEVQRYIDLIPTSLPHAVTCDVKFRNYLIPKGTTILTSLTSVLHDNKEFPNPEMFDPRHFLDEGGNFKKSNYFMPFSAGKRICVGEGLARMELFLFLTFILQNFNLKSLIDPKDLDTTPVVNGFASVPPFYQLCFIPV
Experimental for CYP1A2: as §2, §3, §4
Experimental for CYP2A6: as §2, §3, §4
Experimental for CYP2C19: as §2, §3, §4

Broadly, the kinact is the rate constant of inactivation at saturating inhibitor. For orientation: IC50 means the point on the concentration scale where inhibition reaches its midpoint. With `COc1cc([C@H]2OC[C@H]3[C@@H]2CO[C@@H]3c2ccc3c(c2)OCO3)cc(OC)c1OC` [Aschantin], the Ki on CYP2C8 [1] (read-out: Ki (apparent)) was 10.2 µM; at CYP2C9 [2] (read-out: Ki (apparent)), 3.7 µM. In addition, the kinact at CYP2C8 [1] (pH 7.4, probe amodiaquine (2 µM)) is 0.000933 s⁻¹; at CYP2C9 [2] (pH 7.4, probe diclofenac (10 µM)), 0.000733 s⁻¹. In addition, the IC50 at CYP2A6 was above 100 µM; at CYP2A6 (read-out: IC50 With Pre-incubation, CYP2A6 coumarin 7-hydroxylase, 2.5 µM coumarin, 30 min pre-incubation with microsomes and NADPH), above 100 µM; against CYP1A2, above 100 µM; at CYP1A2 (read-out: IC50 With Pre-incubation, CYP1A2 phenacetin O-de-ethylase, 50 µM phenacetin, 30 min pre-incubation with microsomes and NADPH), above 100 µM; on CYP2C8 [3] (setting [6]), 27.8 µM; against CYP2C8 [3] (setting [7]), 5.3 µM. The IC50 came out at 40.5 µM on CYP2C9 [4] (setting [6]), 14.1 µM against CYP2C9 [4] (setting [7]), 22.7 µM at CYP2C19 (setting [6]) and 6.1 µM at CYP2C19 (setting [7]). Moreover, the “inhibition of CYP2A6-mediated coumarin 7-hydroxylation” value at CYP2A6 (setting [5]) is listed as “negligibly inhibited”. Moreover, at CYP1A2 (setting [5]), the “inhibition of CYP1A2-mediated phenacetin O-de-ethylation” value is “negligibly inhibited”. Besides, the IC50 shift at 0.5 h is above 2.5 on CYP2C8 [3] (human, pooled human liver microsomes, pH 7.4, probe amodiaquine (2.0 µM), N-de-ethylation); above 2.5 on CYP2C9 [4] (human, pooled human liver microsomes, pH 7.4, probe diclofenac (10 µM), 4′-hydroxylation); above 2.5 on CYP2C19 (human, pooled human liver microsomes, pH 7.4, probe [S]-mephenytoin (100 µM), 4′-hydroxylation).
